From patent US11572384B2, “Unusual substrates of tubulin tyrosine ligase” (FORSCHUNGSVERBUND BERLIN E.V., priority 2016, dated 2023)

Biological target: T1, TTL (Canis lupus familiaris, UniProt A0A8I3N5B1)
T1 construct: His-Tag (N, cleaved yes); Sumo (N, cleaved yes); made in house; host or cells: E. coli BL21 (DE3)
T1 sequence (A0A8I3N5B1 1-377): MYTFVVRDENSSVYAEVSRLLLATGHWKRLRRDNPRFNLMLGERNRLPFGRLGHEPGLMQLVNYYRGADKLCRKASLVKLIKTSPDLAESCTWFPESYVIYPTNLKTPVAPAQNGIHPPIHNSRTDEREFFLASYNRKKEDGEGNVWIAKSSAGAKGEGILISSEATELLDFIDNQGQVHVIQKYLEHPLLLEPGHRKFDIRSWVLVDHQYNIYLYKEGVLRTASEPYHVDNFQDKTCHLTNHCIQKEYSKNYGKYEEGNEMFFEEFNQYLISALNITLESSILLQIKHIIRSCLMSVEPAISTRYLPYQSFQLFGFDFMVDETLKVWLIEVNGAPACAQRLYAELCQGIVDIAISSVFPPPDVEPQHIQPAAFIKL
Test: TTL mediated labelling of Tub-tagged proteins with coumarin derivative 7 (SDS-PAGE, in-gel fluorescence)
Type: biochemical
Details: 1 μM TTL, 37°, 1-6 h
Procedure: TTL (Canis lupus) having NCBI Accession number XP_540180.2 was expressed in E. coli (BL21 DE3) as Sumo-TTL fusion protein with an N-terminal His-Tag. Cells were induced with 0.5 mM IPTG and incubated at 18° C. for 18 h. Lysis was performed in presence of Lysozyme (100 μg/ml), DNAse (25 μg/ml) and PMSF (2 mM) followed by sonification (Branson® Sonifier; 16×8sec, 20% Amplitude) and debris centrifugation at 20.000 g for 30 min. His-Sumo-TTL was purified using a 5 ml His-Trap. For removal of the Sumo-Tag, peak fractions were incubated with SenP2 protease at 4° C. overnight. A second His-Trap run then removed the Sumo fraction. Purified protein was then desalted on a PD10 column (GE Healthcare); buffer was exchanged to MES/K pH 6.8 (20 mM MES, 100 mM KCl, 10 mM MgCl2). Protein aliquots were shock-frozen and stored at −80° C. at 0.8 g/l. Functionalization reactions were performed in a 150 μL solution consisting of 20 mM MES/K pH 7.0, 100 mM KCl, 10 mM MgCl2, 2.5 mM ATP, 1 mM (7), 1 μM TTL, 5 μM ubiquitin and 5 mM DTT. The mixture was incubated at 37° for 1-6 h. Proteins were separated and analysed by SDS-PAGE and a ChemiDoc™ XRS+gel imaging system (Bio-Rad, Hercules, Calif., US). Functionalization reactions were performed in a 150 μL solution consisting of 20 mM MES/K pH 7.0, 100 mM KCl, 10 mM MgCl2, 2.5 mM ATP, 1 mM (7), 1 μM TTL, 5 μM nanobody and 5 mM DTT. The mixture was incubated at 37° for 1-6 h. Proteins were separated and analysed by SDS-PAGE and a ChemiDoc™ XRS+gel imaging system (Bio-Rad, Hercules, Calif., US). Functionalization reactions were performed in a 150 μL solution consisting of 20 mM MES/K pH 7.0, 100 mM KCl, 10 mM MgCl2, 2.5 mM ATP, 1 mM (24), 1 μM TTL, 5 μM nanobody and 5 mM DTT. The mixture was incubated at 37° for 1-6 h. Proteins were separated and analysed by SDS-PAGE and a ChemiDoc™ XRS+gel imaging system (Bio-Rad, Hercules, Calif., US).

N[C@@H](Cc1cc(=O)oc2cc(O)ccc12)C(=O)O.O=C(O)C(F)(F)F [compound 7, (1S)-1-Carboxy-2-(7-hydroxy-2-oxo-2H-chromen-4-yl)ethyl ammonium trifluoroacetate]
successfully functionalized: TTL mediated functionalization of Tub-tagged Annexin V (SDS-PAGE and in-gel fluorescence (FIG. 10)) | TTL mediated functionalization of Tub-tagged GBP nanobody (1 mM (7), 5 μM nanobody, SDS-PAGE and in-gel fluorescence (FIG. 9)) | TTL mediated functionalization of Tub-tagged ubiquitin (1 mM (7), 5 μM ubiquitin, SDS-PAGE and in-gel fluorescence (FIG. 8))
